Results on six compounds are retold here after paper PMC4643906, “Interaction of the N-(3-Methylpyridin-2-yl)amide Derivatives of Flurbiprofen and Ibuprofen with FAAH: Enantiomeric Selectivity and Binding Mode” (PLoS ONE, 2015).

Positions count from the first letter of the chain named. Like-named read-outs stand apart in the source and are kept apart here.

For one experiment, the target named is T1, rat brain FAAH (Rattus norvegicus, UniProt P97612).
T1 construct: from tissue; host or cells: rat brain (minus cerebellum), washed membrane pellet
T1 sequence (P97612 1-579): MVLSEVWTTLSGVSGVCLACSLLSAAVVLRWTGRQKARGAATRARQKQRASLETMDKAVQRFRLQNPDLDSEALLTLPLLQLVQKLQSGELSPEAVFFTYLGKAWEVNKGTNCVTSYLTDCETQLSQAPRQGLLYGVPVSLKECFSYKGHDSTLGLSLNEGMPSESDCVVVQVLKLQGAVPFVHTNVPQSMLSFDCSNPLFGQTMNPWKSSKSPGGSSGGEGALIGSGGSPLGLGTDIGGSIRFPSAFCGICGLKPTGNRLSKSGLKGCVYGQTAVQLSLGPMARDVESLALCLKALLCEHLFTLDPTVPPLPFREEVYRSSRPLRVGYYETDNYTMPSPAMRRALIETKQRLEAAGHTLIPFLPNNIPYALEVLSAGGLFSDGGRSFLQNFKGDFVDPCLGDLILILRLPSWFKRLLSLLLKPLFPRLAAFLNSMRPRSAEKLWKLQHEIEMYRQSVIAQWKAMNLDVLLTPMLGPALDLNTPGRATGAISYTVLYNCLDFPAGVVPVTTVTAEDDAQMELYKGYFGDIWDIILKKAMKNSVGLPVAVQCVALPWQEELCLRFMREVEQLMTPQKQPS
The experiment in a line: Inhibition of [3H]AEA hydrolysis in rat brain homogenates. In kind it is biochemical. As to the method:
(§1) Brains (minus cerebella) from adult Wistar or Sprague-Dawley rats (killed by decapitation) and from male B6CBAF1/J mice (killed by cervical dislocation), stored at -80°C, were thawed, weighed and homogenized in cold buffer (20 mM HEPES, 1 mM MgCl2 pH 7.0). Homogenates were centrifuged (35,000 g at 4°C for 20 min) before the pellet was resuspended in cold homogenization buffer. Centrifugation and resuspension was repeated twice. The suspension was incubated at 37°C for 15 min to degrade any endogenous substrate able to interfere with the FAAH assay. After centrifugation (35,000 g at 4°C for 20 min), the pellet was resuspended in cold buffer (50 mM Tris-HCl, 1mM EDTA, 3 mM MgCl2, pH 7.4). The protein concentration was determined according to [27] after which the samples were frozen in aliquots at -80°C.
(§2) The assays were performed according to [28] with minor modifications. Briefly, homogenates or cell lysates in assay buffer (10 mM Tris-HCl, 1mM EDTA, pH 7.4) were mixed with substance dissolved in ethanol on ice. Hydrolysis reactions were initiated by addition of substrate ([^3H]AEA in 10 mM Tris-HCl, 1mM EDTA, pH 7.4 containing 10 mg ml^-1 fatty acid-free bovine serum, assay concentration 0.5 μM unless otherwise stated) and incubation at 37°C. For the brain homogenates, hydrolysis at 37°C was allowed to proceed for 10 min (assay volume was 200 μL, with 1 and 0.3 μg/assay protein concentrations of the rat and mouse homogenates, respectively). For the kinetic experiments, the AEA: fatty acid-free bovine serum albumin ratio was kept constant at 1: ~4.5 (μM). Following incubation, reactions were stopped by addition of 400 μL activated charcoal (80 μL activated charcoal + 320 μL 0.5 M HCl) and placement of samples on ice before centrifugation at 2500 rpm for 10 min. Aliquots (200 μL) of the supernatant were analyzed for tritium content by liquid scintillation spectroscopy with quench correction. Sample sizes were chosen on the basis of previous data investigating FAAH inhibitory properties of compounds.
(§3) pI50 and IC50 values were calculated using log(inhibitor) vs. response with variable slope (four parameters) algorithm in the GraphPad Prism computer program (GraphPad Software Inc., San Diego, CA. USA). […] The best fit was chosen by Akaike’s informative criteria. Ki and α values were obtained using the enzyme kinetics mixed model inhibition curve fitting algorithm available in the GraphPad Prism programme. This models the observed velocity v^app at a given substrate concentration where v^app = Vmax ^app/(1 + Km ^app/[S]), Vmax ^app = Vmax/(1+[I]/(αKi)) and Km ^app = Km(1+[I]/Ki)/(1+[I]/(αKi)) (http://www.graphpad.com/guides/prism/6/curve-fitting/index.htm?reg_mixered_model.htm, URL checked 16 October 2015). The model assuming competitive interactions (where α→∞) was also used, and the best fit was chosen by Akaike’s informative criteria. Robust linear regressions for the Dixon plots, which are less sensitive to outliers than the standard least-squares methodology were undertaken using the same computer programme.

Experiment [1] has as its target T2, rat wild-type FAAH (FAAH^wt) (Rattus norvegicus, UniProt P97612).
T2 construct: expressed in transfected cells; host or cells: HeLa cells, pcDNA4 plasmid, lysate
T2 sequence (P97612 1-579): T1 sequence (P97612 1-579)
The experiment is described as follows: Inhibition of [3H]AEA hydrolysis in lysates of HeLa cells expressing wild-type FAAH. In kind it is biochemical. Particulars: for IC50: preliminary experiments, another batch of wild-type FAAH, 1.5–2 μg/assay, 20 min at 37°C, read-out: potencies; for nH: 0.5 μM [3H]AEA.

Experiment [2] concerns the target T3, mouse brain FAAH (Mus musculus, UniProt O08914).
T3 construct: from tissue; host or cells: mouse brain (minus cerebellum), washed membrane pellet
T3 sequence (O08914 1-579): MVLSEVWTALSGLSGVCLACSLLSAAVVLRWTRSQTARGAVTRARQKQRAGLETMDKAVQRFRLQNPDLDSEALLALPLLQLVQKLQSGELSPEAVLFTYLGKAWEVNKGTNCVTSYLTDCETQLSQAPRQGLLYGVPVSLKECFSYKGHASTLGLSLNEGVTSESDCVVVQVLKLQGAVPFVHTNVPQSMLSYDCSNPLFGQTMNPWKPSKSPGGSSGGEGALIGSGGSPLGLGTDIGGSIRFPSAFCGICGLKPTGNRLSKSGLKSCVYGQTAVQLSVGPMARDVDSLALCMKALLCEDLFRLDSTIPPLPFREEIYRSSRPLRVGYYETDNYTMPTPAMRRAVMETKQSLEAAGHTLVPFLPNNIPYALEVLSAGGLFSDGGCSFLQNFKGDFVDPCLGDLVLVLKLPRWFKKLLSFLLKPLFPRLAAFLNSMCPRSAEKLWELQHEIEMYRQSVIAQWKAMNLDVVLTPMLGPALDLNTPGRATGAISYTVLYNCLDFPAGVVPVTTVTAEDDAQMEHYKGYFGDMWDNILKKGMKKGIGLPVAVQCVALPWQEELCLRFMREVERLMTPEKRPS
The experiment in a line: Inhibition of [3H]AEA hydrolysis in mouse brain homogenates. To be noted: 0.5 μM [3H]AEA. It is filed as biochemical. The protocol:
as §1, §2, §3

Experiment [3] deals with T3, mouse brain FAAH. On the set-up: method as in PMID 26406890. Particulars: mouse brain homogenates; cited from earlier work.
The next experiment has as its target T4, FAAH^T488A (Rattus norvegicus, UniProt P97612, T488A).
T4 construct: expressed in transfected cells; host or cells: HeLa cells, pcDNA4 plasmid, lysate
T4 sequence (P97612 1-579 T488A): T1 sequence (P97612 1-579) with T488A
The experiment is described as follows: Inhibition of [3H]AEA hydrolysis in lysates of HeLa cells expressing FAAH^T488A. It is filed as biochemical. To be noted: FAAH^T488A lysate 0.4 μg/assay, 18 h, 0.5 μM [3H]AEA.

Where [4] appears, read: rat brain homogenates, 0.5 μM [3H]AEA, read-out: IC50.
[5] abbreviates: rat brain homogenates, 0.5 μM [3H]AEA, read-out: pI50 (converted).
Setting [6] is: linear mixed inhibition model fit, 0.5–4 μM [3H]AEA.
[7] abbreviates: linear mixed inhibition model fit, 0.5–4 μM [3H]AEA, read-out: Ki.
Where [8] appears, read: median of Dixon plot intersections, 0.5–4 μM [3H]AEA, read-out: Ki (Dixon plot).
[9] abbreviates: rat brain homogenates, 0.5 μM [3H]AEA.

Turning to `Cc1cccnc1NC(=O)C(C)c1ccc(CC(C)C)cc1` (racemic) [racemic Ibu-AM5, 2-(4-Isobutylphenyl)-N-(3-methylpyridin-2-yl)propanamide], the IC50 at rat brain FAAH (setting [4]) and on rat brain FAAH (setting [5]) was 1.2 µM each time.
As for `Cc1cccnc1NC(=O)[C@H](C)c1ccc(CC(C)C)cc1` [(R)-Ibu-AM5, 2-(4-Isobutylphenyl)-N-(3-methylpyridin-2-yl)propanamide], the IC50 in experiment [1] was 8.8 µM; on rat brain FAAH (setting [4]), 5.7 µM; on rat brain FAAH (setting [5]) it was 5.62 µM; at mouse brain FAAH [2] (read-out: IC50) it was 53 µM. The α at rat brain FAAH (setting [6]) came to 3.1±1.1. In addition, the Ki (as a rule, a measure of affinity in units of concentration, obtained from inhibition or displacement) at rat brain FAAH (setting [7]) was 10 ± 2.5 µM; on rat brain FAAH (setting [8]), 9.8 µM. On rat brain FAAH (rat FAAH), the “fold less potent an inhibitor of FAAH than the (S)-enantiomer” value turned out to be 10 fold. In addition, the “nH (Hill slope)” value at rat brain FAAH (setting [9]) amounted to 1.05±0.10; on mouse brain FAAH [2], 1.50±0.36. Besides, the inhibition (usually the percentage by which the read-out fell short of the control) on rat brain FAAH (rat brain homogenates, 0.5 μM [3H]AEA, read-out: maximum inhibition (best fit)) came to 92%.
In the case of `Cc1cccnc1NC(=O)[C@@H](C)c1ccc(-c2ccccc2)c(F)c1` [(S)-Flu-AM1], the IC50 in experiment [1] is 2.4 µM; on rat brain FAAH (setting [4]) it was 0.99 µM; at rat brain FAAH (setting [5]), 1 µM; on mouse brain FAAH [3], 11 µM. In addition, the “mode of inhibition (best-fit model)” value on rat brain FAAH (0.5–4 μM [3H]AEA, compared with pure competitive model) is “linear mixed inhibition”. Further, on rat brain FAAH (setting [6]), the α worked out at 5.6±3.6. Further, the Ki amounted to 0.79 ± 0.28 µM on rat brain FAAH (setting [7]) and 0.86 µM on rat brain FAAH (setting [8]). The results for the “nH (Hill slope)” value on rat brain FAAH (setting [9]) and at mouse brain FAAH [2] were 0.94±0.04 and 1.31±0.16, respectively. For the same compound, at mouse brain FAAH [3], the pI50 was 4.96±0.04.
Regarding `Cc1cccnc1NC(=O)[C@@H](C)c1ccc(CC(C)C)cc1` [(S)-Ibu-AM5, 2-(4-Isobutylphenyl)-N-(3-methylpyridin-2-yl)propanamide], the IC50 was 0.53 µM in experiment [1]; 0.59 µM at rat brain FAAH (setting [4]); 0.589 µM at rat brain FAAH (setting [5]); 7 µM on mouse brain FAAH [2] (read-out: IC50); 6.92 µM at mouse brain FAAH [2] (read-out: pI50 (converted)). The “interaction with carprofen in multiple inhibition experiments” value on rat brain FAAH (Dixon plots, 0.5 μM [3H]AEA, together with carprofen) is given as “mutually exclusive manner”. The α on rat brain FAAH (setting [6]) is 3.2±1.5. In addition, the inhibition constant Ki was 0.8 ± 0.21 µM at rat brain FAAH (setting [7]) and 0.89 µM at rat brain FAAH (setting [8]). Moreover, the results for the “nH (Hill slope)” value at rat brain FAAH (setting [9]) and at mouse brain FAAH [2] were 0.81±0.08 and 1.33±0.38, respectively.
`CC(C(=O)O)c1ccc2c(c1)[nH]c1ccc(Cl)cc12` (stereo not drawn) [Carprofen, reference compound]: the nH in experiment [1] (FAAH^wt + empty vector (0.36 μg/assay) lysates, 18 h) came to 4.28±0.41; in experiment [1] (FAAH^wt lysate 0.04 μg/assay, 18 h), 3.00±0.31; at FAAH^T488A, 2.43±0.37. The “maximum inhibition (best fit)” value in experiment [1] (wild-type FAAH lysates, 18 h) was 82–91%. The “nH (Hill slope)” value on rat brain FAAH (setting [9]) worked out at 1.66±0.13.
As for `Cc1cccnc1NC(=O)Cc1ccc(CC(C)C)cc1` [Ibufenac-AM1, 2-(4-Isobutylphenyl)-N-(3-methylpyridin-2-yl)acetamide], the results for the IC50 at rat brain FAAH (setting [4]) and on rat brain FAAH (setting [5]) were 68 µM and 67.6 µM, respectively.
